From PubChem BioAssay AID256 (DTP/NCI, 2004) come the findings set out here.

Values joined by “and” are separate entries in the source; they are usually repeats but may differ in a detail not shown here. Identical values can stand only once. Toxic doses and inconclusive results are not listed.

For this assay, the system named is CD2F1 mice, L1210 leukemia ip, survival T/C. The assay is described as follows: NCI In Vivo Anticancer Drug Screen. Data for tumor model L1210 Leukemia (intraperitoneal) in CD2F1 (CDF1) mice. The following applies: higher = longer survival. Summed up:
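Ratio T/C, where T is the treated-group value and C the vehicle-dosed control value, from mice implanted with a transplantable tumor.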

Where [1] appears, read: endpoint: mean survival time, dose: 100.0 mg/kg/injection, schedule: Q01DX009 (ip), vehicle: saline with Tween-80.
[2] abbreviates: endpoint: mean survival time, dose: 200.0 mg/kg/injection, schedule: Q01DX009 (ip), vehicle: saline with Tween-80.
Where [3] appears, read: endpoint: mean survival time, dose: 400.0 mg/kg/injection, schedule: Q01DX009 (ip), vehicle: saline with Tween-80.
[4] abbreviates: endpoint: mean survival time, dose: 100.0 mg/kg/injection, schedule: Q04DX003 (ip), vehicle: saline with Tween-80.
Where [5] appears, read: endpoint: mean survival time, dose: 200.0 mg/kg/injection, schedule: Q04DX003 (ip), vehicle: saline with Tween-80.
The mark [6] stands for this setting: endpoint: mean survival time, dose: 400.0 mg/kg/injection, schedule: Q04DX003 (ip), vehicle: saline with Tween-80.
[7] abbreviates: endpoint: mean survival time, dose: 50.0 mg/kg/injection, schedule: Q01DX009 (ip), vehicle: saline.

`Nc1cc(S(=O)(=O)c2ccc(/C=C/c3ccccc3)c(N)c2)ccc1/C=C/c1ccccc1`: the T/C is, setting by setting: under setting [1], 93 % of control; under setting [2], 94 % of control and 88 % of control; under setting [3], 91 % of control.

On to `CCOC(=O)c1[nH]cnc1/N=N/N(C)CCO`, for which the T/C runs as follows: under setting [4], 106 % of control; under setting [5], 111 % of control; (endpoint: mean survival time, dose: 264.0 mg/kg/injection, schedule: Q01DX009 (ip), vehicle: saline sonified) 160 % of control; (endpoint: mean survival time, dose: 400.0 mg/kg/injection, schedule: Q01DX009 (ip), vehicle: saline sonified) 162 % of control; under setting [3], 150 % of control; under setting [6], 109 % of control. The T/C (endpoint: mean survival time, dose: 600.0 mg/kg/injection, schedule: Q01DX009 (ip), vehicle: saline sonified) was 165 % of control.

Regarding `C[N+]1(C)CCC(c2ccccc2)(c2ccccc2)C(=O)C1`, the T/C (endpoint: mean survival time, dose: 75.0 mg/kg/injection, schedule: Q01DX001 (ip), vehicle: saline) was 101 % of control and the T/C (endpoint: mean survival time, dose: 150.0 mg/kg/injection, schedule: Q01DX001 (ip), vehicle: saline) was 101 % of control.

Consider `O=C(OCc1ccccc1)C1CCCN1C(=O)C(CSC(c1ccccc1)(c1ccccc1)c1ccccc1)NC(c1ccccc1)(c1ccccc1)c1ccccc1` (stereo not drawn), for which the T/C is 97 % of control under setting [7]; 97 % of control (endpoint: mean survival time, dose: 100.0 mg/kg/injection, schedule: Q01DX009 (ip), vehicle: saline); 95 % of control (endpoint: mean survival time, dose: 200.0 mg/kg/injection, schedule: Q01DX009 (ip), vehicle: saline); 95 % of control (endpoint: mean survival time, dose: 400.0 mg/kg/injection, schedule: Q01DX009 (ip), vehicle: saline).

As for `C=C(C)C(=O)OCCN(C)C` (tested in a mixture with another compound), the T/C under setting [1] is 97 % of control; the T/C under setting [4] is 100 % of control; the T/C under setting [2] is 106 % of control; the T/C under setting [5] is 122 % of control; the T/C under setting [6] is 92 % of control.

As to `COc1ccc([NH-])cc1.COc1ccc([NH-])cc1.[Br][Pt+2][Br]`, the T/C runs as follows: (endpoint: mean survival time, dose: 3.12 mg/kg/injection, schedule: Q04DX003 (ip), vehicle: distilled water + Tween-80) 111 % of control; (endpoint: mean survival time, dose: 6.25 mg/kg/injection, schedule: Q04DX003 (ip), vehicle: distilled water + Tween-80) 108 % of control; (endpoint: mean survival time, dose: 12.5 mg/kg/injection, schedule: Q04DX003 (ip), vehicle: distilled water + Tween-80) 114 % of control; (endpoint: mean survival time, dose: 25.0 mg/kg/injection, schedule: Q04DX003 (ip), vehicle: distilled water + Tween-80) 111 % of control; (endpoint: mean survival time, dose: 50.0 mg/kg/injection, schedule: Q04DX003 (ip), vehicle: distilled water + Tween-80) 98 % of control.

In the case of `CCCCC1(C(C)CC(C)(C)C)NC(C)(C)CC(C)O1` (stereo not drawn), the T/C is 104 % of control (endpoint: mean survival time, dose: 25.0 mg/kg/injection, schedule: Q04DX002 (ip), vehicle: saline); 101 % of control (endpoint: mean survival time, dose: 50.0 mg/kg/injection, schedule: Q04DX002 (ip), vehicle: saline); 89 % of control (endpoint: mean survival time, dose: 100.0 mg/kg/injection, schedule: Q04DX002 (ip), vehicle: saline); 101 % of control under setting [4].

Take `O=c1[nH]cnc2c1nnn2C1OC(CO)C(O)C1O` (stereo not drawn): the T/C is 121 % of control (endpoint: median survival time, dose: 50.0 mg/kg/injection, schedule: Q01DX005 (ip), vehicle: saline); 156 % of control (endpoint: median survival time, dose: 200.0 mg/kg/injection, schedule: Q01DX005 (ip), vehicle: saline); 160 % of control (endpoint: median survival time, dose: 400.0 mg/kg/injection, schedule: Q01DX005 (ip), vehicle: saline); 90 % of control (endpoint: median survival time, dose: 400.0 mg/kg/injection, schedule: Q01DX005 (ip), vehicle: suspension in saline); 111 % of control (endpoint: median survival time, dose: 800.0 mg/kg/injection, schedule: Q01DX005 (ip), vehicle: saline).

On to `O=C(NNC(=O)C(F)(F)F)c1ccccc1`, for which the T/C is, setting by setting: (endpoint: mean survival time, dose: 12.5 mg/kg/injection, schedule: Q01DX009 (ip), vehicle: other) 92 % of control; (endpoint: mean survival time, dose: 25.0 mg/kg/injection, schedule: Q01DX009 (ip), vehicle: other) 94 % of control; (endpoint: mean survival time, dose: 50.0 mg/kg/injection, schedule: Q01DX009 (ip), vehicle: other) 94 % of control; (endpoint: mean survival time, dose: 100.0 mg/kg/injection, schedule: Q01DX009 (ip), vehicle: other) 118 % of control; (endpoint: mean survival time, dose: 200.0 mg/kg/injection, schedule: Q01DX009 (ip), vehicle: other) 109 % of control.

With `CC1CCC2[S][Sn]3([NH]C2C1)[NH]C1CC(C)CCC1[S]3` (stereo not drawn), the T/C is 106 % of control (endpoint: mean survival time, dose: 100.0 mg/kg/injection, schedule: Q04DX002 (ip), vehicle: saline with Tween-80) and 111 % of control (endpoint: mean survival time, dose: 200.0 mg/kg/injection, schedule: Q04DX002 (ip), vehicle: saline with Tween-80).

Consider `COc1ccc(CC2=NCCc3cc(OC)c(OC)cc32)cc1OC`, for which the T/C by setting is: (endpoint: mean survival time, dose: 25.0 mg/kg/injection, schedule: Q01DX009 (ip), vehicle: saline) 95 % of control; (endpoint: mean survival time, dose: 25.0 mg/kg/injection, schedule: Q04DX003 (ip), vehicle: saline) 110 % of control; under setting [7], 101 % of control; (endpoint: mean survival time, dose: 50.0 mg/kg/injection, schedule: Q04DX003 (ip), vehicle: saline) 104 % of control; (endpoint: mean survival time, dose: 100.0 mg/kg/injection, schedule: Q04DX003 (ip), vehicle: saline) 96 % of control and 103 % of control.

For the compound `CCC1(O)CC2CN(CCc3c([nH]c4ccccc34)C(C(=O)OC)(c3cc4c(cc3OC)N(C)C3C(O)(C(=O)NCCSSCCNC(=O)C5(O)C(O)C6(CC)C=CCN7CCC8(c9cc(C%10(C(=O)OC)CC%11CN(CCc%12c%10[nH]c%10ccccc%12%10)CC(O)(CC)C%11)c(OC)cc9N(C)C58)C76)C(O)C5(CC)C=CCN6CCC43C65)C2)C1` (stereo not drawn), for the setting “endpoint: median survival time, dose: 1.08 mg/kg/injection, schedule: Q01DX009 (ip), vehicle: suspension in saline”, the T/C was 111 % of control.

Consider `CSC(=NC#N)SC`, for which the T/C (endpoint: mean survival time, dose: 3.13 mg/kg/injection, schedule: Q01DX001 (ip), vehicle: Klucel (hydroxypropylcellulose) (HPC)) is 101 % of control and the T/C (endpoint: mean survival time, dose: 6.25 mg/kg/injection, schedule: Q01DX001 (ip), vehicle: Klucel (hydroxypropylcellulose) (HPC)) was 104 % of control.

On to `C=C[CH2][Sn]([CH2]C=C)([c]1ccccc1)[c]1ccccc1`, for which the T/C is, setting by setting: (endpoint: mean survival time, dose: 6.25 mg/kg/injection, schedule: Q01DX009 (ip), vehicle: saline with Tween-80) 89 % of control; (endpoint: median survival time, dose: 25.0 mg/kg/injection, schedule: Q04DX002 (ip), vehicle: saline with Tween-80) 112 % of control.

In the case of `CNC(=O)CCC(NC(=O)c1ccc(N(C)Cc2cnc3nc(N)nc(N)c3n2)cc1)C(=O)O` (stereo not drawn), the T/C is, setting by setting: (endpoint: mean survival time, dose: 1.0 mg/kg/injection, schedule: Q01DX009 (ip), vehicle: sodium bicarbonate) 103 % of control; (endpoint: mean survival time, dose: 10.0 mg/kg/injection, schedule: Q01DX009 (ip), vehicle: sodium bicarbonate) 113 % of control; (endpoint: mean survival time, dose: 25.0 mg/kg/injection, schedule: Q01DX009 (ip), vehicle: sodium bicarbonate) 121 % of control.

Regarding `CCOC(=O)N1CCc2cc(OC)c(OC)cc2C1=C(c1ccccc1)c1ccccc1`, the T/C was 91 % of control under setting [1]; 86 % of control under setting [4]; 95 % of control under setting [2]; 88 % of control under setting [3]; 86 % of control under setting [6].

`CCC(C)CCCOC(=O)c1c(Cl)c(Cl)c(Cl)c(Cl)c1C(=O)O` (stereo not drawn): the T/C was 106 % of control (endpoint: mean survival time, dose: 100.0 mg/kg/injection, schedule: Q01DX001 (ip), vehicle: saline); 112 % of control (endpoint: mean survival time, dose: 200.0 mg/kg/injection, schedule: Q01DX001 (ip), vehicle: saline); 102 % of control (endpoint: mean survival time, dose: 400.0 mg/kg/injection, schedule: Q01DX001 (ip), vehicle: saline).

`CCOC(=O)N1CCN(c2ccc(Cl)cc2)CC1`: the T/C is, setting by setting: (endpoint: mean survival time, dose: 100.0 mg/kg/injection, schedule: Q04DX003 (ip), vehicle: Klucel (hydroxypropylcellulose) (HPC)) 93 % of control; (endpoint: mean survival time, dose: 200.0 mg/kg/injection, schedule: Q04DX003 (ip), vehicle: Klucel (hydroxypropylcellulose) (HPC)) 91 % of control.

As to `CC1CC=C(/C=N/Nc2ccc([N+](=O)[O-])cc2[N+](=O)[O-])C(C)O1` (stereo not drawn), the T/C is, setting by setting: (endpoint: mean survival time, dose: 100.0 mg/kg/injection, schedule: Q01DX001 (ip), vehicle: saline with Tween-80) 107 % of control; (endpoint: mean survival time, dose: 200.0 mg/kg/injection, schedule: Q01DX001 (ip), vehicle: saline with Tween-80) 101 % of control; (endpoint: mean survival time, dose: 400.0 mg/kg/injection, schedule: Q01DX001 (ip), vehicle: saline with Tween-80) 98 % of control.

`Cc1ccc(C(C)NC2=NCCO2)c(C)c1` (stereo not drawn): the T/C reads like this: (endpoint: mean survival time, dose: 25.0 mg/kg/injection, schedule: Q04DX002 (ip), vehicle: saline with Tween-80) 91 % of control; (endpoint: mean survival time, dose: 50.0 mg/kg/injection, schedule: Q04DX002 (ip), vehicle: saline with Tween-80) 95 % of control.

Regarding `C/C(=N/Nc1ccc([N+](=O)[O-])cc1[N+](=O)[O-])c1ccccc1`, the T/C reads like this: under setting [1], 91 % of control; under setting [2], 97 % of control; under setting [3], 100 % of control.
